Ki, inhibition and Km data for five compounds are collected here from publication PMC5051719, “Fourth-Generation Progestins Inhibit 3β-Hydroxysteroid Dehydrogenase Type 2 and Modulate the Biosynthesis of Endogenous Steroids” (PLoS ONE, 2016).

Read-outs that look alike come from different tables or passages of the source.

Common to all, as to assay type: cell-based
Assay [1] concerns the target T1, 3β-hydroxysteroid dehydrogenase type 2 (3βHSD2) (Homo sapiens, UniProt P26439).
T1 construct: gene HSD3B2
T1 sequence (P26439 1-372): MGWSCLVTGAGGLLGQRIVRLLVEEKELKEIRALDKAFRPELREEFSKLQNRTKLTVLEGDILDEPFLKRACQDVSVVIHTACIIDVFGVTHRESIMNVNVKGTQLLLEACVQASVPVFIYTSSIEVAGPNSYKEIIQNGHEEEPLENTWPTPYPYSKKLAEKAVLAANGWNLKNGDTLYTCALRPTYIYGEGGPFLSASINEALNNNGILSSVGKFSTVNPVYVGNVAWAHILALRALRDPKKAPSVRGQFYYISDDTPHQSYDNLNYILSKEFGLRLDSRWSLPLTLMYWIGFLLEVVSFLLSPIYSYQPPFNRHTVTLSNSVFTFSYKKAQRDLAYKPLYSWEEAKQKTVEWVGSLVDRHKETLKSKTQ
As to the kind of experiment: pregnenolone to progesterone conversion kinetics in transfected COS-1 cells, UPLC-MS/MS.

The target of assay [2] is T2, cytochrome P450 17α-hydroxylase/17,20 lyase (CYP17A1) (Homo sapiens, UniProt P05093).
T2 construct: pIRES-hCYP17A1-V5-X-hCYPB5-6HIS expressed in COS-1 cells
T2 sequence (P05093 whole entry): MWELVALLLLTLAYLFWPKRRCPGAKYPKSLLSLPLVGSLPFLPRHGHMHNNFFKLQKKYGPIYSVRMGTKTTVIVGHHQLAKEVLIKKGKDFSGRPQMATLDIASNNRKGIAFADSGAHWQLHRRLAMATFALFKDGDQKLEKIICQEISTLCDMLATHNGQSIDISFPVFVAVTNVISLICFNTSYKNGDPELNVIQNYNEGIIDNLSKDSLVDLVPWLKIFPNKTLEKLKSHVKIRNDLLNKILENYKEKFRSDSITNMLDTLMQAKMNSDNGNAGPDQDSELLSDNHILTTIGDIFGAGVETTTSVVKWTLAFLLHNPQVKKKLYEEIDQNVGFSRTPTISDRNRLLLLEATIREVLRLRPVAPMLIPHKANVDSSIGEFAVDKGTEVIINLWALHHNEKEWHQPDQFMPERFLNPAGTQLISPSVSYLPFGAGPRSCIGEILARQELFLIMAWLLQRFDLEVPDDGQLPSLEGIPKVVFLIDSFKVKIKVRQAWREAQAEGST
T2 sequence (P00167 2-134, further chain): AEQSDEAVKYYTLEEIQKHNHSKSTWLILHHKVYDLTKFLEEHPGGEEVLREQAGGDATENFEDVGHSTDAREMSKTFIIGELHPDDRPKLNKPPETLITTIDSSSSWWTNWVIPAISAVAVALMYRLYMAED
The experiment in a line: progesterone conversion in transfected COS-1 cells with […] inhibitor, UPLC-MS/MS.

The target of assay [3] is T1, 3β-hydroxysteroid dehydrogenase type 2 (3βHSD2). The experiment in a line: Michaelis-Menten kinetics of conversion to progesterone in transfected COS-1 cells (Km), UPLC-MS/MS.

As a reminder, the Ki is the dissociation constant of the complex between target and ligand, obtained from inhibition or displacement. One may read the inhibition as the change of the read-out against control, counted positive when it falls. Read a low inhibition as a weak effect. `C[C@]12CCC(=O)C=C1[C@@H]1C[C@@H]1[C@H]1[C@@H]3[C@@H]4C[C@@H]4[C@@]4(CCC(=O)O4)[C@@]3(C)CC[C@@H]12` [DRSP, drospirenone]: the Ki in assay [1] (read-out: Ki) worked out at 232 ± 38 nM. In addition, the inhibition at 1 µM in assay [2] is 55.2 ± 16.5%.
For `C=C1C[C@H]2[C@@H]3CCC4=CC(=O)CCC4[C@H]3CC[C@]2(C)C1(OC(C)=O)C(C)=O` (stereo partly drawn) [NES, nestorone], the Ki in assay [1] (read-out: Ki) amounted to 9.5 ± 0.96 nM.
`CC(=O)O[C@]1(C(C)=O)CC[C@H]2[C@@H]3C=C(C)C4=CC(=O)CC[C@@H]4[C@H]3CC[C@@]21C` [NoMAC, nomegestrol acetate]: in assay [1] (read-out: Ki), the Ki was 29 ± 7.1 nM.
In general, Km refers to the concentration of substrate that gives half-maximal velocity. `CC(=O)[C@H]1CC[C@H]2[C@@H]3CC=C4C[C@@H](O)CC[C@]4(C)[C@H]3CC[C@]12C` [Preg, pregnenolone]: the Km in assay [3] amounted to 0.85 ± 0.05 µM.
Consider `C[C@]12CC[C@H]3[C@@H](CC[C@@]45O[C@@H]4C(O)=C(C#N)C[C@]35C)[C@@H]1CC[C@@H]2O` [trilostane, reference compound], for which the Ki in assay [1] was 31.3 ± 5.5 nM.
